Reference: patent US8008303B2, “Biphenyl derivatives and their use in treating hepatitis C” (AstraZeneca AB, priority 2005, dated 2011)
Where two headings read alike, the source gives them in different places.

Key:
[1] = tested on: HCV replicon cells Huh 9B; assay: HCV replicon assay (luciferase readout); format: cell-based
How it was run: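 Compounds, made up at twice final strength (final DMSO 1%), were added to subgenomic replicon cells one day after plating. Incubation then ran 72 h at 37 °C, 5% CO2, without G418. Replication was quantified as firefly luciferase luminescence in lysed cells, with cytotoxicity assessed on a duplicate clear plate.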

[2] = tested on: HCV replicon cells Huh 9B; format: cell-based
[3] = concentration reducing total cell area by 50% relative to DMSO controls, methylene blue, absorbance 620 nm, 72 h incubation

Structure (SMILES) | IC50 [1] | TD50 [2, 3] | TD50 [2]
CCCS(=O)(=O)N1CCN(Cc2ccc(NC(=O)c3ccc(-c4cc(C(=O)Nc5ccc(N6CCOCC6)cc5C)ccc4OC)cc3)cc2)CC1 [Example 260, 6-Methoxy-biphenyl-3,4′-dicarboxylic acid 3-[(2-methyl-4-morpholin-4-yl-phenyl)-amide] 4′-({4-[4-(propane-1-sulfonyl)-piperazin-1-ylmethyl]-phenyl}-amide)] | < 1000 nM | * (* < 50 μM) | 
COc1ccc(C(=O)Nc2ccc(N3CCS(=O)(=O)CC3)cc2)cc1-c1ccc(C(=O)Nc2ccc(N3CCN(C)CC3)cc2)cc1 [Example 261, 6-Methoxy-biphenyl-3,4′-dicarboxylic acid 3-{[4-(4-(1,1-dioxo-1lambda*6*-thiomorpholin-4-yl)-phenyl]-amide} 4′-{[4-(4-methyl-piperazin-1-yl)-phenyl]-amide}] | 1000 to 5000 nM |  | * (key: * < 50 μM; ** > 50 μM)
CCCCS(=O)(=O)N1CCN(Cc2ccc(NC(=O)c3ccc(-c4cc(C(=O)Nc5ccc(N6CCOCC6)cc5)ccc4Cl)cc3)cc2)CC1 [Example 263, 6-Chloro-biphenyl-3,4′-dicarboxylic acid 4′-({4-[4-(butane-1-sulfonyl)piperazin-1-ylmethyl]-phenyl}-amide) 3-[(4-morpholin-4-yl-phenyl)-amide]] | < 1000 nM |  | * (key: * < 50 μM; ** > 50 μM)
CCCS(=O)(=O)N1CCN(Cc2ccc(NC(=O)c3ccc(-c4cc(C(=O)Nc5ccc(N6CCOCC6)c(F)c5)ccc4Cl)cc3)cc2)CC1 [Example 264, 6-Chloro-biphenyl-3,4′-dicarboxylic acid 3-[(3-fluoro-4-morpholin-4-yl-phenyl)-amide] 4′-({4-[4-(propane-1-sulfonyl)-piperazin-1-ylmethyl]-phenyl}-amide)] | < 1000 nM | * (* < 50 μM) | 
CS(=O)(=O)N1CCN(Cc2ccc(NC(=O)c3ccc(Cl)c(-c4ccc(C(=O)Nc5ccc(N6CCOCC6)cc5)cc4)c3)cc2)CC1 [Example 265, 6-Chloro-biphenyl-3,4′-dicarboxylic acid 3-{[4-(4-methanesulfonyl-piperazin-1-ylmethyl)-phenyl]-amide} 4′-[(4-morpholin-4-yl-phenyl)-amide]] | < 1000 nM |  | * (key: * < 50 μM; ** > 50 μM)
